The results in this text go back to paper PMC9866588, “Novel 7-Chloro-4-aminoquinoline-benzimidazole Hybrids as Inhibitors of Cancer Cells Growth: Synthesis, Antiproliferative Activity, in Silico ADME Predictions, and Docking” (Molecules, 2023).

Assay [1] deals with THP-1 (acute monocytic leukemia) cells. Kind of assay: MTT antiproliferative assay, THP-1. The format is cell-based, human. The note with it: Homo sapiens, THP-1; 72 h, MTT, mean ± SD of three independent experiments; read-out: GI50 THP1. As for the experimental part:
(§1) The growth inhibition activity was assessed according to the slightly modified procedure performed at the National Cancer Institute, Developmental Therapeutics Program.
(§2) The examined compounds were dissolved in DMSO (1 × 10^−2 M). The experiments were carried out on seven human tumor cell lines and a normal cell line. The following cell lines were used: HeLa (human cervical adenocarcinoma; purchased from ATCC), CaCo-2 (human colorectal adenocarcinoma), MCF-7 (human breast adenocarcinoma), CCRF-CEM (human acute lymphoblastic leukemia), Hut78 (T-cell lymphoma), THP-1 (acute monocytic leukemia), Burkitt lymphoma (Raji), and MDCK1 (Madine–Darby canine kidney). The MDCK1 cells were used between 24 and 26 passages.
(§3) The adherent cells were cultured in Dulbecco’s modified Eagle medium—DMEM (Gibco, Termo Fisher Scientific Inc., Leicestershire, England, UK), supplemented with 10% heat-inactivated fetal bovine serum (FBS, Gibco, Termo Fisher Scientific Inc., Leicestershire, England, UK), 2 mM glutamine, and 100U/0.1mg penicillin/streptomycin. The cells in suspension were cultured in RPMI 1640 (Gibco, Termo Fisher Scientific Inc., Leicestershire, England, UK) medium, supplemented with 10% FBS (Gibco, Termo Fisher Scientific Inc., Leicestershire, England, UK), 2 mM glutamine, 1 mM sodium pyruvate, and 10 mM HEPES. The cells were grown in a humidified atmosphere under the conditions of 37 °C/5% of CO2 gas in the CO2 incubator (IGO 150 CELLlife^TM, JOUAN, Thermo Fisher Scientific, Waltham, MA, USA).
(§4) The adherent cells (HeLa, CaCo-2, MCF-7, and MDCK-1) were plated in 96-well flat bottom plates (Greiner, Frickenhausen, Austria) at a concentration of 2 × 10^4 cells/mL. The suspension cells (Raji, THP-1, CCRF-CEM and Hut78) were plated in 96-well microtiter plates (Sarstead, Newton, NC, USA) at a concentration of 1 × 10^5 cells/mL. Twenty-four hours later, the cells were treated with test agents in […] and incubated for a further 72 h. The working dilutions were freshly prepared on the day of testing. The solvent was also tested for eventual inhibitory activity by adjusting its concentration to be the same as in the working concentrations. After 72 h of incubation, the cell growth rate was evaluated by performing the MTT assay, which detects dehydrogenase activity in viable cells. For this purpose, upon completion of the incubation period, the growth medium was discarded and 50 μL of MTT was added to each well at a concentration of 5 mg/mL. After four hours of incubation at 37 °C, the water insoluble MTT-formazan crystals were dissolved in 150 μL of dimethyl-sulfoxide (DMSO) for the adherent cells and in 10% SDS with 0.01 mol/L HCl for the cells grown in suspension. The absorbance (OD, optical density) was measured on a microplate reader (iMark, BIO RAD, Hercules, CA, USA) at 595 nm.
(§5) The percentage of live cells was calculated as follows: % = OD (sample) − OD (background)/OD (control) − OD (background) × 100.
(§6) The optical density (OD) of the background for the adherent cells is the OD of the MTT solution and DMSO; the OD (background) for the suspension cells is the OD of the culture medium with MTT and 10% SDS with 0.01 mol/L HCl; the OD (control) is the OD of the cells grown without the tested compounds.
(§7) The calculation of the GI50 value curves and QC analysis was performed using the Excel tools and GraphPadPrism software (La Jolla, CA, USA), v. 5.03. Briefly, individual concentration effect curves are generated by plotting the logarithm of the concentration of the tested compounds (X) vs. the corresponding percent inhibition values (Y) using the least squares fit. The best-fit GI50 values are calculated using log (inhibitor) versus normalized response—variable slope equation, where Y Ľ 100/(1 ţ 10 ((LogIC50 _ X) × HillSlope)). The QC criteria parameters (Z0, S:B, R2, HillSlope) were checked for every GI50 curve.
For orientation: Tetrazolium dyes change colour on reduction, which living cells bring about.

In assay [2] the test system is Raji (Burkitt lymphoma) cells. The assay is described as follows: MTT antiproliferative assay, Raji. The note with it: Homo sapiens, Raji; 72 h, MTT, mean ± SD of three independent experiments. The format is cell-based, human. As for the experimental part: as §1, §2, §3, §4, §5, §6, §7
For assay [3], the system named is Hut78 (T-cell lymphoma) cells. Kind of assay: MTT antiproliferative assay, HuT78. It counts as cell-based, human. The note with it: Homo sapiens, HuT78; 72 h, MTT, mean ± SD of three independent experiments. As for the experimental part: as §1, §2, §3, §4, §5, §6, §7
Assay [4] concerns CCRF-CEM (human acute lymphoblastic leukemia) cells. The assay is described as follows: MTT antiproliferative assay, CCRF-CEM. It counts as cell-based. The note with it: Homo sapiens, CCRF-CEM; 72 h, MTT, mean ± SD of three independent experiments. How it is done:
as §1, §2, §3, §4, §5, §6, §7

For assay [5], the system named is HeLa (human cervical adenocarcinoma) cells. Kind of assay: MTT antiproliferative assay, HeLa. The format is cell-based. The note with it: 72 h, mean ± SD of three independent experiments. As for the experimental part:
as §1, §2, §3, §4, §5, §6, §7

The test system of assay [6] is CaCo-2 (human colorectal adenocarcinoma) cells. Kind of assay: MTT antiproliferative assay, CaCo-2. It counts as cell-based. The note with it: 72 h, mean ± SD of three independent experiments. How it is done: as §1, §2, §3, §4, §5, §6, §7
The test system of assay [7] is MDCK1 (Madine–Darby canine kidney) cells. The assay is described as follows: MTT antiproliferative assay, MDCK1. It counts as cell-based. The note with it: mean ± SD of three independent experiments. How it is done: as §1, §2, §3, §4, §5, §6, §7
Assay [8] has as its system MCF-7 (human breast adenocarcinoma) cells. Kind of assay: MTT antiproliferative assay, MCF-7. The format is cell-based. The note with it: MCF7, 72 h, mean ± SD of three independent experiments. As for the experimental part: as §1, §2, §3, §4, §5, §6, §7
Assay [9] deals with normal (MDCK1) and tumor cell lines. Kind of assay: MTT antiproliferative assay, ranges stated over several cell lines. The format is cell-based. How it is done: as §1, §2, §3, §4, §5, §6, §7
Setting [10] is: Canis lupus familiaris, MDCK1, 72 h.

The structures appear in SMILES notation. Where a name gives a salt, the structure may show the parent alone.

Broadly, the GI50 is the concentration giving 50% growth inhibition. In the case of `O=c1[nH]cc(F)c(=O)[nH]1` [Compound 5-FU, 5-Fluorouracil, reference compound], the GI50 was 76.3 ± 0.5 µM in assay [1]; over 100 µM in assay [2]; over 100 µM in assay [3]; over 50 µM in assay [4]; 8.2 ± 1.9 µM in assay [5]; 5.9 ± 0.7 µM in [6]. Further, the GI50 was 74 ± 3.1 µM in [7] (setting [10]) and 30.2 ± 4.7 µM in assay [8].

For the molecule `N=C(N)c1ccc2[nH]c(-c3cccc(Nc4ccnc5cc(Cl)ccc45)c3)nc2c1` [Compound 5a, 2-(3-(7-chloroquinolin-4-ylamino)phenyl)-1H-benzo[d]imidazole-5-carboximidamide trihydrochloride], the GI50 in assay [1], in assay [2], in [3], in assay [4], in assay [5] and in [6] was over 100 µM in each case. The 50% growth inhibitory concentration (GI50) in [7] (setting [10]) and in assay [8] was over 100 µM in each case.

Take `CC(C)NC(=N)c1ccc2[nH]c(-c3cccc(Nc4ccnc5cc(Cl)ccc45)c3)nc2c1` [Compound 5b, 2-(3-(7-chloroquinolin-4-ylamino)phenyl)-N-isopropyl-1H-benzo[d]imidazole-5-carboximidamide trihydrochloride]: the GI50 in [1] is over 100 µM; in assay [2], over 100 µM; in assay [3], 41.8 ± 8.2 µM; in assay [4], over 100 µM; in [5] it was over 100 µM; in assay [6], over 100 µM. The GI50 in [7] (setting [10]) and in assay [8] was over 100 µM each time.

In the case of `Clc1ccc2c(Nc3cccc(-c4nc5cc(C6=NCCN6)ccc5[nH]4)c3)ccnc2c1` [Compound 5c, 7-chloro-N-(3-(5-(4,5-dihydro-1H-imidazol-2-yl)-1H-benzo[d]imidazol-2-yl)phenyl)quinolin-4-amine trihydrochloride], the GI50 was over 100 µM in assay [1]; over 100 µM in [2]; 66.2 ± 14.6 µM in assay [3]; over 100 µM in assay [4]; over 100 µM in assay [5]; over 100 µM in assay [6]. Moreover, the 50% growth inhibitory concentration (GI50) in assay [7] (setting [10]) and in assay [8] was over 100 µM throughout.

Turning to `Clc1ccc2[nH]c(-c3cccc(Nc4ccnc5cc(Cl)ccc45)c3)nc2c1` [Compound 5e, 7-chloro-N-(3-(5-chloro-1H-benzo[d]imidazol-2-yl)phenyl)quinolin-4-amine], the 50% growth inhibitory concentration (GI50) in assay [1] was 2.1 ± 0.9 µM; in assay [2], 5.4 ± 2 µM; in [9] (MDCK1, range over tumor cell lines, read-out: GI50 range, tumor cell lines), 0.4 to 15.6 µM; in assay [3] it was 6.7 ± 0.5 µM; in assay [4], 15.6 ± 3.4 µM; in [5] it was 11.8 ± 1.2 µM. The 50% growth inhibitory concentration (GI50) is 1.1 ± 0.1 µM in assay [6], 11.4 ± 6.2 µM in [7] (72 h), 11.4 to 20.4 µM in assay [7] (setting [10]) and 11.1 ± 1.6 µM in assay [8]. Also, the “GI50 / inhibitory potential, normal and tumor cells” value in assay [9] (over all tested cell lines) is recorded as “strong antiproliferative activity”.

For `N=C(N)c1ccc2[nH]c(-c3ccc(N4CCN(c5ccnc6cc(Cl)ccc56)CC4)cc3)nc2c1` [Compound 8a, 2-(4-(4-(7-chloroquinolin-4-yl)piperazin-1-yl)phenyl)-1H-benzo[d]imidazole-5-carboxamidine dihydrochloride], the GI50 is over 100 µM in assay [1]; 37.7 ± 8.6 µM in [2]; 20.2 ± 6.1 µM in [3]; 32.1 ± 3.8 µM in assay [4]; 36.3 ± 9.6 µM in [5]; over 100 µM in [6]. The GI50 in assay [7] (setting [10]) came to 42.7 ± 10.8 µM; in assay [8], 20.7 ± 8.6 µM.

`CC(C)NC(=N)c1ccc2[nH]c(-c3ccc(N4CCN(c5ccnc6cc(Cl)ccc56)CC4)cc3)nc2c1` [Compound 8b, 2-(4-(4-(7-chloroquinolin-4-yl)piperazin-1-yl)phenyl)-N-isopropyl-1H-benzo[d]imidazole-5-carboxamidine dihydrochloride]: the GI50 in [1] is over 100 µM; in assay [2], 42.9 ± 8.8 µM; in [3], 26.2 ± 1.6 µM; in assay [4], 39.6 ± 9.2 µM; in assay [5], 21 ± 1.9 µM; in [6], 100 µM. Moreover, the 50% growth inhibitory concentration (GI50) in [7] (setting [10]) was found to be 58.8 ± 9.8 µM; in [8], 30.9 ± 2.7 µM.

As for `Clc1ccc2c(N3CCN(c4ccc(-c5nc6cc(C7=NCCN7)ccc6[nH]5)cc4)CC3)ccnc2c1` [Compound 8c, 7-chloro-4-(4-(4-(5-(4,5-dihydro-1H-imidazol-2-yl)-1H-benzo[d]imidazol-2-yl)phenyl)piperazin-1-yl)quinoline dihydrochloride], the GI50 in assay [1] came out at 71.3 ± 11.4 µM; in assay [2] it was 43.9 ± 16.2 µM; in assay [3], 27.6 ± 4.7 µM; in assay [4], 25.4 ± 11.5 µM; in assay [5], 41.8 ± 8.4 µM; in [6] it was 100 µM. In addition, the GI50 in [7] (setting [10]) was found to be 30.1 ± 5 µM; in [8] it was 24.8 ± 2.2 µM.

For `N=C(N)c1ccc2[nH]c(-c3ccc(C(=O)NCCNc4ccnc5cc(Cl)ccc45)cc3)nc2c1` [Compound 12a, 4-(5-carbamimidoyl-1H-benzo[d]imidazol-2-yl)-N-(2-(7-chloroquinolin-4-ylamino)ethyl)benzamide trihydrochloride], the 50% growth inhibitory concentration (GI50) in assay [1] is over 100 µM; in assay [2] it was 8.9 ± 3.3 µM; in [3] it was 4.1 ± 2 µM; in assay [4] it was 20 ± 6.8 µM; in assay [5], 11.1 ± 3.8 µM; in [6] it was 24.7 ± 6.2 µM. In addition, the GI50 was 21.6 ± 3.2 µM in [7] (setting [10]) and 39.1 ± 5.6 µM in [8].

Regarding `CC(C)NC(=N)c1ccc2[nH]c(-c3ccc(C(=O)NCCNc4ccnc5cc(Cl)ccc45)cc3)nc2c1` [Compound 12b, 4-(5-(N-isopropylcarbamimidoyl)-1H-benzo[d]imidazol-2-yl)-N-(2-(7-chloroquinolin-4-ylamino)ethyl)benzamide trihydrochloride], the concentration for 50% growth inhibition (GI50) in assay [1] came to 100 µM; in [2] it was 12.8 ± 3.7 µM; in assay [3] it was 5.6 ± 2.7 µM; in assay [4] it was 43.3 ± 17.5 µM; in assay [5], 100 µM; in assay [6], 38.7 ± 12.4 µM. For the same molecule, the figures for the GI50 in [7] (setting [10]) and in assay [8] were 42.9 ± 5.1 µM and 100 µM, respectively.

Regarding `O=C(NCCNc1ccnc2cc(Cl)ccc12)c1ccc(-c2nc3cc(C4=NCCN4)ccc3[nH]2)cc1` [Compound 12c, N-(2-(7-chloroquinolin-4-ylamino)ethyl)-4-(5-(4,5-dihydro-1H-imidazol-2-yl)-1H-benzo[d]imidazol-2-yl)benzamide trihydrochloride], the GI50 in assay [1] was over 100 µM; in assay [2], 20.8 ± 1.8 µM; in assay [3], 4.4 ± 1 µM; in assay [4], 56.3 ± 9 µM; in [5] it was 33.2 ± 5.8 µM; in assay [6] it was 52 ± 9.1 µM. The values for the GI50 in [7] (setting [10]) and in [8] were 39.6 ± 2.2 µM and 100 µM, respectively.
